Reference: US20180201647A1, “Peptoid” (The University of Durham, priority 2015, published 2018)
Read-outs that look alike come from different tables or passages of the source. *1 amine or outer side, *2 acyl side, *3 side chain or, on linkers, in order; H or OH if unused. Where a SMILES comes first, the peptide text is derived from it. [ ]: non-standard residue; d: D form. Gly(N-2-aminoethyl) = NCCNCC(=O)O; X1 = N=C(N)NCCN(CC(=O)[*:2])[*:1]; Nspe = C[C@H](NCC(=O)O)c1ccccc1; NhArg = N=C(N)NCCCCNCC(=O)O; Nlys = NCCCCNCC(=O)O

Tests used:
Type in all cases: cell-based
[1] = system: T. cruzi Tulahuen strain C2C4; test: microbe, parasite or virus in culture; settings: for IC50: in L-6 cells, 96 h
Protocol: Rat skeletal myoblasts (L-6 cells) were seeded in 96-well microtitre plates at 2000 cells/well in 100 μL RPMI 1640 medium with 10% FBS and 2 mM 1-glutamine. After 24 h the medium was removed and replaced by 100 μl per well containing 5000 trypomastigote forms of T. cruzi Tulahuen strain C2C4 containing the β-galactosidase (Lac Z) gene. After 48 h the medium was removed from the wells and replaced by 100 μl fresh medium with or without a serial drug dilution of eleven 3-fold dilution steps covering a range from 100 to 0.002 μg/ml. After 96 h of incubation the plates were inspected under an inverted microscope to assure growth of the controls and sterility. Then the substrate CPRG/Nonidet (50 μl) was added to all wells. A color reaction developed within 2-6 h and could be read photometrically at 540 nm. Data were analyzed with the graphic programme Softmax Pro (Molecular Devices), which calculated IC50 values by linear regression from the sigmoidal dose inhibition curves. Benznidazole is used as control (IC50 0.5+0.2 μg/ml).

[2] = system: Escherichia coli K12 W3110
Protocol: (§1) Species used in MIC assays included gram-negative Escherichia coli K12 W3110, Pseudomonas aeruginosa laboratory strain PAO2 and Serratia marcescens laboratory strain and gram-positive Staphylococcus aureus NCTC 6571 and Micrococcus luteus laboratory strain.
(§2) Bacterial cultures were prepared by streaking the bacterial strains on to agar plates with an inoculation loop and incubating overnight at 37° C. A single colony was then selected and placed in 5 mL of Iso-Sensitest broth using an inoculation loop and incubated at 37° C. with shaking overnight.
(§3) MIC values were attained according to the protocol described by J. M. Andrews et al. [J. M. Andrews, J. Antimicrob. Chemother., 2001, 48, 5-16] and were conducted in 96-well microtitre plates in triplicate. 10-50 μL of each overnight culture was inoculated into 1.2 mL of Iso-Sensitest broth and grown at 37° C. with shaking. […] The inoculum was diluted ten-fold with Iso-Sensitest broth before use (to ˜10^3 cfu/spot). Peptide solutions were initially dissolved in DMSO (5 mg mL^−1) and then diluted further with Iso-Sensitest broth to achieve a concentration range of 4 mgL^−1 to 512 mgL^−1 using 2-fold serial dilutions. Samples were vortexed between dilutions where necessary to aid dissolution. 50 μL of inoculum and 50 μL of peptide solution were added to each test well to achieve a final concentration range of 2 mgL^−1 to 256 mgL^−1. Separate dilutions of ampicillin and DMSO were made up in a similar manner to act as a positive antibacterial control and a +DMSO control, respectively. 50 μL of inoculum and 50 μL of Iso-Sensitest broth were used as a positive control and 100 μL of inoculum was used as a negative control. Positive and negatives controls were conducted multiple times in parallel per plate. […] Quantitative data were attained as A650nm values using a BioTek® Synergy™ H4 Hybrid Multi-Mode Microplate Reader.

[3] = system: Pseudomonas aeruginosa laboratory strain PAO2
Protocol: as §1, §2, §3

[4] = system: Serratia marcescens laboratory strain; settings: 16 h
Protocol: as §1, §2, §3

[5] = system: Staphylococcus aureus NCTC 6571
Protocol: as §1, §2, §3

[6] = system: S. aureus (NCTC 6571) biofilm; test: Single species biofilm treatment, crystal violet assay; settings: 100 μM peptoid, 24 hours, FIG. 17B
Protocol: C. albicans (NCTC 3179) was subcultured aerobically on Sabouraud agar plates and propagated in yeast peptone dextrose broth. E. coli (ATCC 29522) and S. aureus (NCTC 6571) were grown on blood agar plates and propagated in brain heart infusion (BHI) broth.
Overnight cultures of C. albicans were washed and resuspended in a modified RPMI-1640 (Sigma-Aldrich, St Louis, USA) medium to yield an inoculum of 1.0×10^6 cells/ml. Overnight cultures of S. aureus or E. coli were washed and resuspended in brain heart infusion broth (Oxoid, Basingstoke, UK) to yield an inoculum of 5.0×10^6 cells/ml. A total volume of 100 μl of each inoculum was added to microtitre plate wells (Thermo Fisher Scientific, Roskilde, Denmark). An initial biofilm was allowed to form for 4 hours. Wells were washed three times with 200 μl PBS to facilitate removal of planktonic cells and the biofilms were then treated with 100 μM of peptoids 1-4 in the appropriate broth. Plates were incubated for a further 24 hours to allow biofilm maturation. After removal of planktonic cells by washing, biofilms were quantified by the crystal violet assay or by PMA-qPCR.
Biofilm quantification by crystal violet assay Washed biofilms were fixed with 100 μl methanol for 10 minutes. Following removal of methanol, the wells were air dried and stained with crystal violet solution (Clin-Tech Ltd, Guildford, UK) for 20 minutes at room temperature. Excess stain was removed by washing, the plate was then air dried and bound crystal violet was re-solubilised in 16 μl 33% acetic acid prior to reading at 570 nm in a microtitre plate reader (Tecan GENios, Ziirich, Switzerland).

[7] = system: Trypanosoma brucei rhodesiense STIB900
Protocol: This stock was isolated in 1982 from a human patient in Tanzania and after several mouse passages cloned and adapted to axenic culture conditions. Minimum Essential Medium (50 μl) supplemented with 25 mM HEPES, 1 g/l additional glucose, 1% MEM non-essential amino acids (100×), 0.2 mM 2-mercaptoethanol, 1 mM Na-pyruvate and 15% heat inactivated horse serum was added to each well of a 96-well microtiter plate. Serial drug dilutions of eleven 3-fold dilution steps covering a range from 100 to 0.002 μg/ml were prepared. Then 4×10^3 bloodstream forms of T. b. rhodesiense STIB 900 in 50 μl was added to each well and the plate incubated at 37° C. under a 5% CO2 atmosphere for 70 h. 10 μl Alamar Blue (resazurin, 12.5 mg in 100 ml double-distilled water) was then added to each well and incubation continued for a further 2-4 h. Then the plates were read with a Spectramax Gemini XS microplate fluorometer (Molecular Devices Cooperation, Sunnyvale, Calif., USA) using an excitation wave length of 536 nm and an emission wave length of 588 nm. The IC50 values were calculated by linear regression from the sigmoidal dose inhibition curves using SoftmaxPro software (Molecular Devices Cooperation, Sunnyvale, Calif., USA). Melarsoprol (Arsobal Sanofi-Aventis, received from WHO) is used as control.

[8] = system: L. donovani strain MHOM/ET/67/L82 axenic amastigotes
Protocol: Amastigotes of L. donovani strain MHOM/ET/67/L82 were grown in axenic culture at 37° C. in SM medium^24 at pH 5.4 supplemented with 10% heat-inactivated fetal bovine serum under an atmosphere of 5% CO2 in air. One hundred microlitres of culture medium with 10^5 amastigotes from axenic culture with or without a serial drug dilution were seeded in 96-well microtitre plates. Serial drug dilutions of eleven 3-fold dilution steps covering a range from 90 to 0.002 μg/ml were prepared. After 70 h of incubation the plates were inspected under an inverted microscope to assure growth of the controls and sterile conditions. 10 μl of Alamar Blue (12.5 mg resazurin dissolved in 100 ml distilled water) were then added to each well and the plates incubated for another 2 h. Then the plates were read with a Spectramax Gemini XS microplate fluorometer (Molecular Devices Cooperation, Sunnyvale, Calif., USA) using an excitation wave length of 536 nm and an emission wave length of 588 nm. Data were analyzed using the software Softmax Pro (Molecular Devices Cooperation, Sunnyvale, Calif., USA). Decrease of fluorescence (=inhibition) was expressed as percentage of the fluorescence of control cultures and plotted against the drug concentrations. From the sigmoidal inhibition curves the IC50 values were calculated.

[9] = system: erythrocytic stages of P. falciparum
Protocol: In vitro activity against erythrocytic stages of P. falciparum was determined using a 3H-hypoxanthine incorporation assay using the drug sensitive NF54 strain (Schipol airport) or the chloroquine and pyrimethamine resistant K1 strain that originate from Thailand and the standard drug chloroquine (Sigma C6628). Compounds were dissolved in DMSO at 10 mg/ml and added to parasite cultures incubated in RPMI 1640 medium without hypoxanthine, supplemented with HEPES (5.94 g/l), NaHCO3 (2.1 g/1), neomycin (100 U/ml), Albumax® (5 g/l) and washed human red cells A^+ at 2.5% haematocrit (0.3% parasitaemia). Serial drug dilutions of eleven 3-fold dilution steps covering a range from 100 to 0.002 μg/ml were prepared. The 96-well plates were incubated in a humidified atmosphere at 37° C.; 4% CO2, 3% O2, 93% N2. After 48 h 50 μl of 3H-hypoxanthine (=0.5 μCi) was added to each well of the plate. The plates were incubated for a further 24 h under the same conditions. The plates were then harvested with a Betaplate™ cell harvester (Wallac, Zurich, Switzerland), and the red blood cells transferred onto a glass fibre filter then washed with distilled water. The dried filters were inserted into a plastic foil with 10 ml of scintillation fluid, and counted in a Betaplate™ liquid scintillation counter (Wallac, Zurich, Switzerland). IC50 values were calculated from sigmoidal inhibition curves by linear regression using Microsoft Excel. Chloroquine and artemisinin are used as control.

[10] = second figure of cell, 37° C., 16 h, Iso-Sensitest broth

In the case of `O=C(Cn1ccnc1[N+](=O)[O-])NCc1ccccc1` [Benznidazole, reference compound], the IC50 ([1]; Trypanosoma cruzi, TULAHUEN, L6, control drug, read-out: IC50 T. cruzi, control) is reported as 0.5 mg/L.

With `C[C@@H](c1ccccc1)N(CC(N)=O)C(=O)CN(C(=O)CN(CCCCN)C(=O)CN(C(=O)CN(C(=O)CN(CCCCN)C(=O)CN(C(=O)CN(C(=O)CN(CCCCNC(=N)N)C(=O)CN(C(=O)CN(C(=O)CNCCCCN)[C@@H](C)c1ccccc1)[C@@H](C)c1ccccc1)[C@@H](C)c1ccccc1)[C@@H](C)c1ccccc1)[C@@H](C)c1ccccc1)[C@@H](C)c1ccccc1)[C@@H](C)c1ccccc1` [Peptoid 3, (NLys-Nspe-Nspe)(NhArg-Nspe-Nspe)(NLys-Nspe-Nspe)2] (H-[Nlys][Nspe][Nspe][NhArg][Nspe][Nspe][Nlys][Nspe][Nspe][Nlys][Nspe][Nspe]-NH2; N-terminus assumed) the “MIC E. coli” value ([2]; K12, 16 h) was 17 µM, the “MIC E. coli” value [2, 10] was 32 mgL^−1 and the “MIC P. aeruginosa” value ([3]; laboratory strain PAO2, 16 h) was 17 µM. The “MIC P. aeruginosa” value [3, 10] was 32 mgL^−1, the “MIC S. marcescens” value ([4]; laboratory strain) was 134 µM and the “MIC S. marcescens” value ([4]; second figure of cell, 37° C., Iso-Sensitest broth) was 256 mgL^−1. For the same compound, the “MIC S. aureus” value ([5]; NCTC 6571, 16 h) was 17 µM, the “MIC S. aureus” value [5, 10] was 32 mgL^−1 and the “activity against the S. aureus biofilm” value [6] was “strongest anti-bacterial activity”.

With `C[C@@H](c1ccccc1)N(CC(N)=O)C(=O)CN(C(=O)CN(CCN)C(=O)CN(C(=O)CN(C(=O)CN(CCNC(=N)N)C(=O)CN(C(=O)CN(C(=O)CN(CCN)C(=O)CN(C(=O)CN(C(=O)CNCCNC(=N)N)[C@@H](C)c1ccccc1)[C@@H](C)c1ccccc1)[C@@H](C)c1ccccc1)[C@@H](C)c1ccccc1)[C@@H](C)c1ccccc1)[C@@H](C)c1ccccc1)[C@@H](C)c1ccccc1` [Peptoid 6, [(NnArgNspeNspe)(NaeNspeNspe)]2] (H-[X1][Nspe][Nspe][Gly(N-2-aminoethyl)][Nspe][Nspe][X1][Nspe][Nspe][Gly(N-2-aminoethyl)][Nspe][Nspe]-NH2; N-terminus assumed) the IC50 ([7]; 70 h) was 6.44 µM, the “active against T. brucei rhodesiense” value ([7]; statement in words) was “active” and the IC50 ([1]; read-out: IC50 T. cruzi) was 6.58 µM. The “active against T. cruzi” value ([1]; statement in words) was “active”, the “active against L. donovani” value ([8]; statement in words) was “active” and the IC50 ([8]; strain MHOM/ET/67/L82 axenic amastigotes, 70 h) was 9.51 µM. For the same compound, the “active against P. falciparum” value ([9]; statement in words) was “active” and the IC50 ([9]; strain (NF54 or K1) not given) was 0.99 µM.
